Like-named read-outs stand apart in the source and are kept apart here.
How the values were obtained:
C32 human melanoma cells = experiment: cell viability in the C32 cell-based assay (Viability, C32 IC50); conditions: Homo sapiens, concentration causing 50% cell death, values greater than 10 represent a lack of cell death
Method in brief: (§1)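 Cell death was scored within the cell-based GM3 experiment for each line. The viability value is the concentration producing 50% death, and numbers exceeding 10 signify no cytotoxicity.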

B16 mouse melanoma cells = experiment: cell viability in the B16 cell-based assay (Viability, B16 IC50); conditions: Mus musculus
Method in brief: as §1

[1] = test system: GM3 expression on the cell surface, C32 human melanoma cells; experiment: cell based phenotypic assay, cell surface GM3 by antibody mediated immunofluorescence, C32 (GM3 C32 IC50); conditions: Homo sapiens, 50% inhibition of GM3 expression on the cell surface
Method in brief: (§2)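 B16 mouse and C32 human melanoma cells; cell-surface GM3 measured by antibody-mediated immunofluorescence, giving IC50.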

[2] = target: T1, glucosylceramide synthase (Homo sapiens, UniProt Q16739); experiment: microsomal assay measuring conversion of ceramide to glucosylceramide by HPLC (GCS IC50); type: biochemical; conditions: concentration causing 50% inhibition of glucosylceramide synthase activity
T1 construct: Microsomes were isolated from A375 human melanoma cells; endogenous in cells; host or cells: A375 human melanoma cells (microsomal fraction, 100,000 g pellet)
T1 sequence (Q16739 1-394): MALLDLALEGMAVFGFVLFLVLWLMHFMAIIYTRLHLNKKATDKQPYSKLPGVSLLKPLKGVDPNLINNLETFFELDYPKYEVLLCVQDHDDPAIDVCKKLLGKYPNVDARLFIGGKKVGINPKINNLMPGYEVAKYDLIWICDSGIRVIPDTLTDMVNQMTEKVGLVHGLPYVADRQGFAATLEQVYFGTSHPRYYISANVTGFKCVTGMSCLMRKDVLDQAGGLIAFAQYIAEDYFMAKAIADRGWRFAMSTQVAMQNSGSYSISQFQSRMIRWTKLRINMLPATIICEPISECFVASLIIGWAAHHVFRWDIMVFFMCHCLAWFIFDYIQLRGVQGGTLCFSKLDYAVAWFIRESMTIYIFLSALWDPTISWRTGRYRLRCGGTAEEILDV
Method in brief: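 IC50 is the compound concentration halving glucosylceramide synthase activity. Activity was measured in microsomes, with HPLC quantifying glucosylceramide formed from ceramide.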

[3] = test system: GM3 expression on the cell surface, B16 mouse melanoma cells; experiment: cell based phenotypic assay, cell surface GM3 by antibody mediated immunofluorescence, B16 (GM3 B16 IC50); conditions: Mus musculus, 50% inhibition of GM3 expression on the cell surface
Method in brief: as §2

[4] = C32, C32 cells, read-out: Viability, C32 IC50
[5] = B16, B16 cells, concentration causing 50% cell death, values greater than 10 represent a lack of cell death, read-out: Viability, B16 IC50
[6] = C32 human melanoma cells, read-out: GM3 C32 IC50
[7] = B16 mouse melanoma cells, read-out: GM3 B16 IC50
[8] = C32, read-out: Viability, C32 IC50, C32 cells
[9] = B16, read-out: Viability, B16 IC50
[10] = read-out: GM3 C32 IC50, C32 human melanoma cells
[11] = read-out: GM3 B16 IC50, B16 mouse melanoma cells

Structure (SMILES)	IC50 [1, 6] [µM]	IC50 [2] [µM]	IC50 [3, 7] [µM]	IC50 (C32 human melanoma cells; [4]) [µM]	IC50 (B16 mouse melanoma cells; [5]) [µM]	IC50 (C32 human melanoma cells; [8]) [µM]	IC50 (B16 mouse melanoma cells; [9]) [µM]	IC50 [1, 10] [µM]	IC50 [3, 11] [µM]
CNC(=O)c1ccc(Oc2ccc(C(C)(C)NC(=O)NC3(C)CN4CCC3CC4)cc2)cc1 (stereo not drawn) [Example 293, N-Methyl-4-(4-(2-(3-(3-methylquinuclidin-3-yl)ureido)propan-2-yl)phenoxy)benzamide]	0.046	0.186	5.37	1	≥ 10				
CNC(=O)c1ccc(Oc2ccc(C(C)(C)NC(=O)NC3(C)CCN4CCC3CC4)cc2)cc1 (stereo not drawn) [Example 294, N-Methyl-4-(4-(2-(3-(4-methyl-1-aza-bicyclo[3.2.2]nonan-4-yl)ureido)propan-2-yl)phenoxy)benzamide]	0.00706	0.0124	0.843	1	≥ 10				
CNC(=O)c1cccc(Oc2cccc(C(C)(C)NC(=O)NC3(C)CN4CCC3CC4)c2)c1 (stereo not drawn) [Example 296, N-Methyl-3-(3-(2-(3-(3-methylquinuclidin-3-yl)ureido)propan-2-yl)phenoxy)benzamide]	0.155	0.2	5.47	≥ 10	≥ 10				
CNC(=O)c1cccc(Oc2cccc(C(C)(C)NC(=O)NC3(C)CCN4CCC3CC4)c2)c1 (stereo not drawn) [Example 297, N-Methyl-3-(3-(2-(3-(4-methyl-1-aza-bicyclo[3.2.2]nonan-4-yl)ureido)propan-2-yl)phenoxy)benzamide]	0.0132	0.0102	1.37	1	≥ 10				
CC(C)(NC(=O)NC1(C)CCN2CCC1CC2)c1ccc(Oc2ccc(C(=O)N3CCCCC3)cc2)cc1 (stereo not drawn) [Example 300, 1-(4-Methyl-1-aza-bicyclo[3.2.2]nonan-4-yl)-3-(2-(4-(4-(piperidine-1-carbonyl)phenoxy)phenyl)propan-2-yl)urea]	0.00154	0.00685	0.0876	0.316	≥ 10				
CC(C)(NC(=O)NC1(C)CCN2CCC1CC2)c1ccc(Oc2ccc(C(=O)N3CCC(F)(F)CC3)cc2)cc1 (stereo not drawn) [Example 302, 1-(2-(4-(4-(4,4-Difluoropiperidine-1-carbonyl)phenoxy)phenyl)propan-2-yl)-3-(4-methyl-1-azabicyclo[3.2.2]nonan-4-yl)urea]	0.00147	0.00422	0.0317	1	≥ 10				
CC(C)(NC(=O)NC1(C)CCN2CCC1CC2)c1ccc(Oc2ccc(C(=O)N3CC(F)(F)C3)cc2)cc1 (stereo not drawn) [Example 303, 1-(2-(4-(4-(3,3-Difluoroazetidine-1-carbonyl)phenoxy)phenyl)propan-2-yl)-3-(4-methyl-1-aza-bicyclo[3.2.2]nonan-4-yl)urea]	0.00124	0.00763	0.0389	0.316	≥ 10				
CC(C)(NC(=O)OC1CN2CCC1CC2)c1ccc(C(=O)N2CCN(c3ccccc3)CC2)cc1 (stereo not drawn) [Example 304, Quinuclidin-3-yl 2-(4-(4-phenylpiperazine-1-carbonyl)phenyl)propan-2-ylcarbamate]		1.73				≥ 10	≥ 10	0.0959	0.355
CCC1(NC(=O)NC(C)(C)c2ccc(C(=O)N3CCN(c4ccccc4)CC3)cc2)CN2CCC1CC2 (stereo not drawn) [Example 306, 1-(3-Ethylquinuclidin-3-yl)-3-(2-(4-(4-phenylpiperazine-1-carbonyl)phenyl)propan-2-yl)urea]	0.032	0.0951	0.257	3.16	≥ 10				
COCCOc1ccc(-c2ccc(C(C)(C)NC(=O)OC3CN4CCC3CC4)cc2)cn1 (stereo not drawn) [Example 307, Quinuclidin-3-yl 2-(4-(6-(2-methoxyethoxy)pyridin-3-yl)phenyl)propan-2-ylcarbamate]		0.735				≥ 10	≥ 10	0.0972	4.34
COCCOc1ccc(-c2ccc(C(C)(C)NC(=O)OC3CN4CCC3CC4)cc2)nc1 (stereo not drawn) [Example 308, Quinuclidin-3-yl 2-(4-(5-(2-methoxyethoxy)pyridin-2-yl)phenyl)propan-2-ylcarbamate]		0.254				1	7.77	0.0358	0.314
COCCOc1ccc(-c2cccc(C(C)(C)NC(=O)OC3CN4CCC3CC4)c2)nc1 (stereo not drawn) [Example 309, Quinuclidin-3-yl 2-(3-(5-(2-methoxyethoxy)pyridin-2-yl)phenyl)propan-2-ylcarbamate]		0.106				3.16	≥ 10	0.014	0.188
COCCCOc1ccc(-c2cccc(C(C)(C)NC(=O)OC3CN4CCC3CC4)c2)nn1 (stereo not drawn) [Example 312, Quinuclidin-3-yl (2-(3-(6-(3-methoxypropoxy)pyridazin-3-yl)phenyl)propan-2-yl)carbamate]		1.66				1	≥ 10	0.103	1.34
COCCCOc1cnc(-c2cccc(C(C)(C)NC(=O)OC3CN4CCC3CC4)c2)cn1 (stereo not drawn) [Example 315, Quinuclidin-3-yl (2-(3-(5-(3-methoxypropoxy)pyrazin-2-yl)phenyl)propan-2-yl)carbamate]		0.197				1	≥ 10	0.0259	0.435

Second part, led by results:

IC50 [1, 6] [µM]	IC50 [2] [µM]	IC50 [3, 7] [µM]	Structure (SMILES)	IC50 (C32 human melanoma cells; [4]) [µM]	IC50 (B16 mouse melanoma cells; [5]) [µM]	IC50 (C32 human melanoma cells; [8]) [µM]	IC50 (B16 mouse melanoma cells; [9]) [µM]	IC50 [1, 10] [µM]	IC50 [3, 11] [µM]
0.0308	0.138	1.1	CNC(=O)c1cccc(Oc2cccc(C(C)(C)NC(=O)OC3CCN4CCC3CC4)c2)c1 (stereo not drawn) [Example 298, 1-Aza-bicyclo[3.2.2]nonan-4-yl 2-(3-(3-(methylcarbamoyl)phenoxy)phenyl)propan-2-ylcarbamate]	3.16	≥ 10				
0.00367	0.0154	0.192	CC(C)(NC(=O)OC1CCN2CCC1CC2)c1ccc(Oc2ccc(C(=O)N3CCCCC3)cc2)cc1 (stereo not drawn) [Example 299, 1-Aza-bicyclo[3.2.2]nonan-4-yl 2-(4-(4-(piperidine-1-carbonyl)phenoxy)phenyl) propan-2-ylcarbamate]	1	≥ 10				
0.00339	0.0172	0.0494	CC(C)(NC(=O)OC1CCN2CCC1CC2)c1ccc(Oc2ccc(C(=O)N3CCC(F)(F)CC3)cc2)cc1 (stereo not drawn) [Example 301, 1-Azabicyclo[3.2.2]nonan-4-yl 2-(4-(4-(4,4-difluoropiperidine-1-carbonyl)phenoxy)phenyl)propan-2-ylcarbamate]	1	≥ 10				
0.0121	0.123	0.145	COCCOc1ccc(-c2ccc(C(C)(C)NC(=O)OC3CCN4CCC3CC4)cc2)nc1 (stereo not drawn) [Example 310, 1-Azabicyclo[3.2.2]nonan-4-yl 2-(4-(5-(2-methoxyethoxy)pyridin-2-yl)phenyl)propan-2-ylcarbamate]	3.16	≥ 10				
0.0085	0.076	0.103	COCCOc1ccc(-c2cccc(C(C)(C)NC(=O)OC3CCN4CCC3CC4)c2)nc1 (stereo not drawn) [Example 311, 1-Azabicyclo[3.2.2]nonan-4-yl 2-(3-(5-(2-methoxyethoxy)pyridin-2-yl)phenyl)propan-2-ylcarbamate]	3.16	≥ 10				
0.0107	0.0889	0.47	COCCCOc1ccc(-c2cccc(C(C)(C)NC(=O)OC3CCN4CCC3CC4)c2)nn1 (stereo not drawn) [Example 313, 1-Azabicyclo[3.2.2]nonan-4-yl (2-(3-(6-(3-methoxypropoxy)pyridazin-3-yl)phenyl)propan-2-yl)carbamate]	≥ 10	≥ 10				
0.118	2.63	4.91	COCCCOc1ccc(-c2cccc(C(C)(C)NC(=O)N3CCN4CCC3CC4)c2)nn1 [Example 314, N-(2-(3-(6-(3-Methoxypropoxy)pyridazin-3-yl)phenyl)propan-2-yl)-1,4-diazabicyclo[3.2.2]nonane-4-carboxamide]	≥ 10	≥ 10				
